Measured values reported in the NIST ThermoML archive (doi:10.1021/acs.jced.8b00399).

Settings: 99.6 kPa, Liquid; for viscosity: Capillary tube (Ostwald / Ubbelohde) method; for mass density: Vibrating tube method

CNC(C)=O [N-methylacetamide]
Settings	mass density [kg/m3]	viscosity [mPa·s]
308.15 K	946.01	3.57
313.15 K	941.81	3.152
318.15 K	937.59	2.8
323.15 K	933.36	2.496
328.15 K	929.17	2.245
